Values after ≈ are worked out from the molar mass of the structure shown. Some results are limits rather than exact numbers.

By NOAEL is commonly meant the highest tested level that showed no adverse finding.

Data set [1] concerns Anas platyrhynchos. To be noted: acute; oral; unspecified; mortality.
The subject of data set [2] is Colinus virginianus. The following applies: for LC50: diet.
Data set [3] relates to Apis mellifera. To be noted: acute; duration: 48 hours; oral; unspecified; mortality.
Data set [4] concerns Cyprinus carpio. The following applies: chronic/long-term; duration: 21 days; growth.
Data set [5] has as its system Daphnia magna. To be noted: chronic/long-term; duration: 17 days; reproduction.
Data set [6] deals with Oncorhynchus mykiss. To be noted: acute; duration: 96 hours; mortality.
In data set [7] the test system is Poecilus cupreus. The following applies: not reported; morphology.
Data set [8] concerns Rattus norvegicus. To be noted: for NOAEL: histopathology: nonneoplastic.
The test system of data set [9] is Tagia sp.

The compound `CC1=C(C(=O)Nc2ccccc2)S(=O)(=O)CCO1` [Oxycarboxin] yielded an LD50 in [1] of 1250 mg/kg-day. Further, in data set [2] (acute, oral, mortality), the LC50 is over 2200 mg/kg-day.

Take `CC1=C(C(=O)Nc2ccccc2)SCCO1` [Carboxin]: the LD50 in [3] was over 100 µg/piece; in [2] (acute, oral, mortality), over 2150 mg/kg-day; in data set [8] (acute, oral, mortality) it was 2590 mg/kg-day. The LC50 is over 985 mg/kg-day in [2] (acute, oral, mortality); 2.3 µg/mL (≈ 9.77 µM) in [6]; over 500 mg/kg in data set [9] (acute, duration: 14 days, mortality). The NOEC in data set [2] (reproduction developmental) worked out at 83 mg/kg-day; in [4] it was 0.32 mg/L; in data set [5] it was 0.32 mg/L; in [9] (chronic/long-term, duration: 56 days) it was 100 mg/kg. The compound also showed an LEL in data set [7] of 776 mg/kg. In addition, the NOAEL was determined as 0.82 mg/kg-day in data set [8] (chronic, duration: 2 years, M) and 5.5 mg/kg-day in data set [8] (subchronic, duration: 90 days, oral). Moreover, the NOEL in data set [8] (reproduction developmental, reproduction) came out at 20 mg/kg-day.

The values above are taken from EPA's ToxValDB 9.5 (doi:10.2903/j.efsa.2010.1857).
